Data from PubChem BioAssay (NCI).
Several values for one entry are separate records, joined by “and”; a condition that tells them apart may be missing. Equal entries are not always repeated.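 A five-concentration, 48-hour dose response in 96-well plates underlies each endpoint, interpolated linearly between surrounding concentrations. GI50 marks 50% less growth. The concentration for full growth arrest is given as TGI.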

How the values were obtained:
Experiment in all cases: DTP human tumour cell line panel, 48 h
[1] = tested on: MCF7 breast
[2] = tested on: HOP-92 NSCLC
[3] = tested on: PC-3 prostate
[4] = tested on: NCI-H522 lung
[5] = tested on: 786-0 renal
[6] = tested on: MDA-MB-231 breast
[7] = tested on: T-47D breast
[8] = tested on: BT-549 breast
[9] = tested on: SR leukemia
[10] = tested on: HCT-116 colon
[11] = tested on: MDA-N

SMILES	GI50 [1]	TGI [1]	GI50 [2]	TGI [3]	TGI [4]	TGI [5]	GI50 [6]	TGI [6]	GI50 [7]	GI50 [8]	TGI [8]	TGI [2]	GI50 [3]	GI50 [4]	GI50 [9]	TGI [9]	GI50 [10]	TGI [10]	TGI [11]	TGI [7]
CC1OC(O[C@@H]2C=C3CC[C@@H]4[C@H](CC[C@]5(C)[C@@H](c6ccc(=O)oc6)CC[C@]45O)[C@@]3(C)CC2)C(O)C(OC2OC(CO)C(O)C(O)C2O)C1O (stereo partly drawn)	0.000196 µM	0.0804 µM and 0.0468 µM	0.000166 µM	0.00942 µM	0.000427 µM	0.0117 µM	0.000388 µM	0.0196 µM	0.00216 µM	–	–	–	–	–	–	–	–	–	–	–
COc1ccc([I+]c2ccc(OC)cc2)cc1	7.26 µM	> 100 µM	3.27 µM	> 100 µM	> 100 µM	> 100 µM	–	> 100 µM	13.5 µM	11.1 µM	> 100 µM	> 100 µM	15.7 µM	38.3 µM	3.81 µM	> 100 µM	2.83 µM	> 100 µM	> 38.3 µM	> 100 µM
COC(=O)C12Oc3ccc(-c4ccc5c(c4O)C(O)=C4C(=O)CC(C)C(O)C4(C(=O)OC)O5)c(O)c3C(O)=C1C(=O)CC(C)C2O (stereo not drawn)	–	> 100 µM	–	1.43 µM	0.309 µM	> 32.2 µM	–	6.8 µM	–	–	8.77 µM	> 22.7 µM	–	–	–	0.224 µM	–	–	> 100 µM	> 29.1 µM
COc1cc2c[n+](C)c3c4cc(OC)c(OCc5ccccc5)cc4c(OCc4ccccc4)cc3c2cc1OC	–	21.9 µM	–	11.1 µM	3.4 µM	35.5 µM	–	18.4 µM	–	–	9.05 µM	8.51 µM	–	–	–	6 µM	–	22 µM	12 µM	21.6 µM
O=S(O)c1cc(Cl)c(O)c(Cl)c1	–	–	–	–	> 100 µM	–	–	–	–	–	–	–	–	–	–	> 100 µM	–	> 100 µM	–	–
CC(=O)OCC1OC(N=[N+]=[N-])C(OC(C)=O)C(OC(C)=O)C1OC1OC(COC(C)=O)C(OC(C)=O)C(OC(C)=O)C1OC(C)=O (stereo not drawn)	–	–	–	–	> 100 µM	> 100 µM	–	–	–	–	–	–	–	–	–	–	–	–	–	–
C=C1CCOC2(C(O)C(C)(O)CO)NC(=O)C1(O)NC2=O (stereo not drawn)	–	> 100 µM	–	> 100 µM	> 100 µM	> 100 µM	–	> 100 µM	–	–	> 100 µM	> 100 µM	–	–	–	> 100 µM	–	> 100 µM	> 100 µM	> 100 µM
COC(=O)c1c(O)ccc2c1c1c(n2Cc2cccc(C)c2)C(=O)c2ccccc2C1	–	> 75 µM	–	27.6 µM	–	–	–	> 75 µM	–	–	> 75 µM	> 75 µM	–	–	–	29.4 µM	–	16.7 µM	–	32.7 µM
C/C(=N\NC(N)=S)c1nc2ncccc2[nH]1	–	> 100 µM	–	> 100 µM	> 100 µM	> 100 µM	–	> 100 µM	–	–	> 96.7 µM	> 100 µM	–	–	–	> 100 µM	–	> 100 µM	> 100 µM	> 100 µM
COc1cc(O)c(Cc2ccccc2O)c(O)c1C(=O)CCc1ccccc1	–	18 µM	–	–	9.21 µM	–	–	–	–	–	–	10.8 µM	–	–	–	–	–	13.7 µM	–	–
Cc1cc(O)c2c(c1)C(C1c3cccc(O)c3C(=O)c3c(O)cc(C)cc31)c1cccc(O)c1C2=O (stereo not drawn)	–	1.18 µM	–	2.81 µM	3.44 µM	6.82 µM	–	1.73 µM	–	–	0.94 µM	0.706 µM	–	–	–	3.32 µM	–	18.9 µM	20.8 µM	2.98 µM
Cn1c(=O)c2[nH]c(SC/C(=N/O)c3ccc(Br)cc3)nc2n(C)c1=O	–	–	2.02 µM	> 100 µM	–	–	2.14 µM	4.38 µM	–	2.55 µM	7.36 µM	4.56 µM	> 100 µM	–	2.83 µM	> 100 µM	3.19 µM	> 100 µM	–	–
COc1ccc2c3/c(=C\c4ccc(N(C)C)cc4)c4ccccc4n3[n+](C)c2c1	–	–	0.236 µM	1.5 µM	> 100 µM	–	0.0352 µM	0.385 µM	–	0.129 µM	2.7 µM	1.78 µM	0.124 µM	0.182 µM	–	–	0.0533 µM	> 100 µM	–	–
